Assay results reported in patent US20050037294A1, “Stabilized p-phenylenediamine-type photographic color developers in free base form” (priority 2000, published 2005).

Assay: Saturation solubility of color developer free base in solvents and solvent/water mixtures (HPLC and NMR)
Details: for CD Free Base Conc. (saturation solubility): ambient temperature, 3% DEHA added; for Solubility in the solvents evaluated (in words): all solvents evaluated, room temperature
Method: Representative solvents were selected from each of the different classes of solvents: alcohols, glycols and glycol ethers. A small quantity of a representative preservative, 3% of N,N-dietheylhydroxylamine (DEHA), was added.

Structure (SMILES)	CD Free Base Conc. (saturation solubility) (2-Propanol/Water 10:90 (weight:weight))	CD Free Base Conc. (saturation solubility) (2-Propanol/Water 50:50 (weight:weight))	CD Free Base Conc. (saturation solubility) (2-Propanol/Water 90:10 (weight:weight))	Solubility in 2-propanol (in words) (2-propanol)	CD Free Base Conc. (saturation solubility) (Ethanol/Water 10:90 (weight:weight))	CD Free Base Conc. (saturation solubility) (Ethanol/Water 50:50 (weight:weight))	CD Free Base Conc. (saturation solubility) (Ethanol/Water 90:10 (weight:weight))	CD Free Base Conc. (saturation solubility) (Methanol/Water 10:90 (weight:weight))	CD Free Base Conc. (saturation solubility) (Methanol/Water 50:50 (weight:weight))	CD Free Base Conc. (saturation solubility) (Methanol/Water 90:10 (weight:weight))	Solubility in the solvents evaluated (in words)	CD Free Base Conc. (saturation solubility) (solvent 2-Isopropoxyethanol)	CD Free Base Conc. (saturation solubility) (solvent 2-Methyl-1,3-Propanediol)	CD Free Base Conc. (saturation solubility) (solvent 2-Propanol)	CD Free Base Conc. (saturation solubility) (solvent 3-Methoxy-1-Butanol)	CD Free Base Conc. (saturation solubility) (solvent Diethylene Glycol)	CD Free Base Conc. (saturation solubility) (solvent Ethanol)	CD Free Base Conc. (saturation solubility) (solvent Methanol)	CD Free Base Conc. (saturation solubility) (solvent PEG-200)	CD Free Base Conc. (saturation solubility) (solvent PEG-300)
CCN(CCNS(C)(=O)=O)c1ccc(N)c(C)c1 [CD-3 free base, 4-amino-3-methyl-N-ethyl-N-(2-methanesulfonamidoethyl)aniline]	0.8 weight percent	9.2 weight percent	7.8 weight percent	low solubility	0.6 weight percent	9.0 weight percent	9.7 weight percent	0.7 weight percent	6.8 weight percent	18.9 weight percent	lesser solubility	8.6 weight percent	3.3 weight percent	1.8 weight percent	9.3 weight percent	15.2 weight percent	5.4 weight percent	23.6 weight percent	16.9 weight percent	16.7 weight percent
CCN(CC)c1ccc(N)c(C)c1 [CD-2 free base, 4-amino-3-methyl-N,N-diethylaniline]											fully miscible									
